According to patent publication US9687486B2, “Methods of treating atherosclerosis or myeloproliferative neoplasms by administering a lyn kinase activator” (THE TRUSTEES OF COLUMBIA UNIVERSITY IN THE CITY OF NEW YORK, priority 2012, dated 2017):
Where a SMILES comes first, the peptide text is derived from it. The star is where a group is joined. Cbz = O=C(OCc1ccccc1)*

Key:
[1] = test system: c-MPL; test: Cell surface c-MPL levels in MkPs by flow cytometry; format: cell-based, mouse; conditions: TPO 30 ng/ml
Experimental: Detection of c-MPL from in vivo and in vitro experiments was performed as follows. After harvesting BM progenitor cells, RBCs were lysed and the cells were then resuspended in FACS buffer. Cells were then stained with a cocktail of lineage markers to allow negative selection of BM progenitor cells (Sca1, CD127, CD45R, CD19, CD11b, CD3e, TER-119, CD2, CD8, CD4, and Ly-6C/G; all FITC; eBioscience) and progenitor cell markers, ckit, CD16/CD32 (FcγRII/III), CD34, CD41 and c-MPL or isotype control and allowed to stain on ice for 30 mins. Cells were then washed and stained with a fluorescently conjugated secondary anti-rabbit antibody to detect the anti-c-MPL for a further 30 mins on ice. After this the cells were washed, resuspended in FACS buffer and run on the LSRII. MEPs were identified as lin^− ckit^+CD16/CD32^loCD34^loCD41^−, while MkPs were identified as lin^−ckit^+CD16/CD32^loCD34^loCD41^+.

[2] = test system: c-CBL; test: c-Cbl tyrosine phosphorylation in MkPs in response to TPO, flow cytometry; format: cell-based, mouse
Experimental: BM progenitor cells were stimulated with TPO at the indicated concentration for the specified period of time at 37° C. and then immediately diluted with ice-cold buffer and placed on ice to prevent further changes in phosphorylation. Cells were then centrifuged and the pellet resuspended in BD fix buffer (BD Biosciences) for 10 mins on ice. The cells were washed with BD flow cytometry staining buffer, centrifuged and then resuspended in BD cytofix/perm buffer III for 20 mins. After this the cells were washed and resuspended in BD staining buffer and incubated with lineage (Sca1, CD127, CD45R, CD19, CD11b, CD3e, TER-119, CD2, CD8, CD4, and Ly-6G; all FITC; eBioscience) and progenitor cell markers, ckit, CD16/CD32 (FcγRII/III), CD34, CD41 and anti-phospho-c-Cbl ([…]/[…]; BD biosciences) or an isotype control for 30 mins on ice. The cells were then washed, resuspended in FACS buffer and run on an LSRII. Phosphorylated c-Cbl was normalized against isotype control staining.

[3] = test system: p-STAT-5 and p-ERK1/2; test: p-STAT5 and p-ERK1/2 levels in MkPs with or without TPO; format: cell-based, mouse; conditions: WT and Abcg4−/− MkPs; TPO 30 ng/ml for 10 minutes
Experimental: FIG. 3. Shown are results all from WT, Abcg4^−/− or Lyn^−/− MkPs (n=4). (A) Quantification of tyrosine-phosphorylated c-CBL in response to TPO. (B) Tyrosine-phosphorylated c-CBL levels 5 min after TPO treatment and with or without pretreatment with CD (3 mM), CD-chol (3 mM CD) for 30 min or rHDL (20 μg apoA-I/ml) for 2 hours. (C) Tyrosine-phosphorylated c-CBL with or without 5 min TPO treatment or SU6656 pretreatment (10 μg/ml for 2 h). (D) Cell surface c-MPL with or without TPO or SU6656 treatment for 2 h. (E) Tyrosine-phosphorylated c-CBL (5 min in response to TPO). (F) cell surface c-MPL (2 h TPO treatment) with or without pretreatment with CD-chol (3 mM CD) for 30 min. (G) 16 h EdU incorporation in the presence of TPO and with or without CD (3 mM), CD-Chol (3 mM CD) pretreatment for 30 min or rHDL (20 μg/ml) for 16 h. (H) p-STAT-5 and p-ERK1/2 levels with or without TPO for 10 minutes. TPO was 30 ng/ml for all the assays shown. Error bars are S.E.M. *P<0.05 WT vs Abcg4^−/− TPO and ^P<0.05 for treatment effect.

[4] = test system: platelets; test: Platelet count after a single dose of recombinant TPO in chow-fed mice; format: in vivo, mouse; conditions: single dose TPO 50 μg/kg BW
Experimental: FIG. 2. (A) Abcg4 mRNA expression in various types of BM and peripheral white blood cells in WT mice determined by q-PCR. (n=5). (B) Quantification of BM cell populations and (C) cell surface c-MPL levels of Ldlr^−/− recipient mice fed WTD for 12 weeks (n=5). (D) MK-CFU assay using HPCs harvested by FACS from WT or Abcg4^−/− mice. (E) Platelet count in the WT and Abcg4^−/− mice (n=5) receiving a single dose of TPO (50 μg/kg BW) or the vehicle control. The representative of two studies with similar results is shown. (F) Bodipy-cholesterol efflux from WT or Abcg4^−/− MkPs to CD (2 mM) or rHDL (20 μg/ml) for 2 hours (n=4). (G) Bodipy-cholesterol levels in WT or Abcg4^−/− MkPs following CD/Bodipy-cholesterol loading (n=4). (H) EdU incorporation into and (I) cell surface c-MPL of WT or Abcg4^−/− MkPs were determined by flow cytometry (n=4). Error bars are S.E.M. *P<0.05 WT versus Abcg4^−/− groups and ^P<0.05 for treatment effect.
Mice and Treatments Abcg4^−/−, Abcg1 Abca1^−/−, and Abcg1^−/− mice were created as described (Wang, N. et al. 2006; Yvan-Charvet, L. et al. 2010) and used in this study. Abcg4^−/− mice have been backcrossed onto C57BL6/J mice for more than 10 generations. WT (C57BL/6J) and Ldlr^−/− (B6.12957-Ldlrtm1Her) were obtained from The Jackson Laboratory (Bar Harbor, Me.). […]
CBCs were quantified using whole blood collected from the tail bleeding. […]

[5] = test system: LacZ-positive splenic cells; test: LacZ-positive splenic cells after phenylhydrazine injection; format: in vivo, mouse; conditions: Abcg4−/− mice on chow diet, 3 days after injections
Excerpt: FIG. 6. (A) Representative of LacZ staining of BM sections of WT or Abcg4^−/− mice fed chow diet. Megakaryocytes are indicated by black arrows while LacZ-positive cells are indicated by white arrows Original magnification 20×. (B) Lac-Z staining of spleen of WT and Abcg4^−/− mice fed the chow diet and (C) from Abcg4^−/− BM Ldlr^−/− recipient mice fed WTD for 12 weeks. (D) Representative LacZ staining of spleen sections and quantification of LacZ-positive splenic cells of Abcg4^−/− mice fed the chow diet 3 days after either vehicle or phenylhydrazine injections. Error bars are S.D (n=5). * P<0.05.
Tissues and proximal aortas were serially paraffin sectioned and stained with H&E for morphological analysis as described^2. Aortic lesion size of each animal was calculated as the mean of lesion areas in 5 sections from the same mouse. Bone samples were decalcified with EDTA solution prior to cryosectioning. Von Willibrand Factor antibody (Dako, Catalog #A0082) was used to stain MKs. Lac-Z staining of frozen sections of mouse bone, spleen or proximal aorta was carried out using β-Galactosidase Staining Kit (Cell Signaling Technology, Danvers, Mass.).

[6] = target: T1, c-MPL (Mus musculus, UniProt Q08351); conditions: mice and other species; Broudy & Lin 2004; cited from earlier work
T1 construct: increasing platelet counts in mice and other species; host or cells: mice (in vivo)
T1 sequence (Q08351 26-625): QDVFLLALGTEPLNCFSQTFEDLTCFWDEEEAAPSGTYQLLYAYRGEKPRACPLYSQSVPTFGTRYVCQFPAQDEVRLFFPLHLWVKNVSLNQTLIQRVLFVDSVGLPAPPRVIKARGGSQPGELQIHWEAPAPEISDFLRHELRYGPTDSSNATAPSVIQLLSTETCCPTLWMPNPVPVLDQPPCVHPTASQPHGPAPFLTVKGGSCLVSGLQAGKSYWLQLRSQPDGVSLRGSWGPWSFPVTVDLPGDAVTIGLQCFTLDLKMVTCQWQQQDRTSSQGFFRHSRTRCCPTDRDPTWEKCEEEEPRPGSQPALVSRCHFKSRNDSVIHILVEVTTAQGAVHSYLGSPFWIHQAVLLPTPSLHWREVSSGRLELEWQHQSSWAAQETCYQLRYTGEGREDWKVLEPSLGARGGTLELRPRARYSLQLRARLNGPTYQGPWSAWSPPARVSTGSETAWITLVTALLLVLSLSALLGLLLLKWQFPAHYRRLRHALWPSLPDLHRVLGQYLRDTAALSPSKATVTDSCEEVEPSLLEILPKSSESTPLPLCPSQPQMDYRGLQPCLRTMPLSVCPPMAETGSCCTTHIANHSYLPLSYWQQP

[7] = test system: total BM cells from WT or Abcg4−/− mice; test: MK-CFU assay with total BM cells, with or without CD pretreatment; format: cell-based, mouse; conditions: CD 3 mM pretreatment for 30 minutes
Experimental: FIG. 13. (A) Fluorescence confocal microscopy of WT or Abcg4^−/− MkPs treated with CD/Bodipy-cholesterol (0.03 mM CD) for 30 min and (B) confocal microscopy and quantification of fillipin stained WT or Abcg4^−/− MkPs. Gene expression was determined by q-PCR in (C) MEPs or (D) GMPs from the WT or Abcg4^−/− BM Ldlr^−/− recipient mice (n=5) fed WTD for 12 weeks. Error bars are S.D (n=10). *P<0.05. (E) MK-CFU assays using total BM cells from WT or Abcg4^−/− mice with or without pretreatment with CD (3 mM) for 30 minutes. Error bars are S.E.M. *P<0.05.
Primary BM HSPC cells obtained by FACS were plated in methylcellulose-based media (5000 cells/assay) containing TPO (50 ng/mL), IL-6 (20 ng/mL), and IL-3 (10 ng/mL) and incubated for 8 days according to manufacturer's protocol (Megacult-C, Stemcell Technologies). Cultures were fixed and the MK colonies visualized by staining for acethylcholinesterase activity. Nuclei were counterstained with Harris' hematoxylin. Colonies containing more than 3 megakaryocytes were scored as CFU-Mk.

[8] = test system: MkPs; test: MkP proliferation by EdU incorporation; format: cell-based, mouse; conditions: in the presence of TPO
Experimental: FIG. 3. Shown are results all from WT, Abcg4^-/- or Lyn^-/- MkPs (n=4). (A) Quantification of tyrosine-phosphorylated c-CBL in response to TPO. (B) Tyrosine-phosphorylated c-CBL levels 5 min after TPO treatment and with or without pretreatment with CD (3 mM), CD-chol (3 mM CD) for 30 min or rHDL (20 μg apoA-I/ml) for 2 hours. (C) Tyrosine-phosphorylated c-CBL with or without 5 min TPO treatment or SU6656 pretreatment (10 μg/ml for 2 h). (D) Cell surface c-MPL with or without TPO or SU6656 treatment for 2 h. (E) Tyrosine-phosphorylated c-CBL (5 min in response to TPO). (F) cell surface c-MPL (2 h TPO treatment) with or without pretreatment with CD-chol (3 mM CD) for 30 min. (G) 16 h EdU incorporation in the presence of TPO and with or without CD (3 mM), CD-Chol (3 mM CD) pretreatment for 30 min or rHDL (20 μg/ml) for 16 […]-5 and p-ERK1/2 levels with or without TPO for 10 minutes. TPO was 30 ng/ml for all the assays shown. Error bars are S.E.M. *P<0.05 WT vs Abcg4^-/- TPO and ^P<0.05 for treatment effect. Blood leukocytes and BM HSPCs were stained and analyzed or sorted as described (Murphy, A. J. et al. 2011). Briefly, BM cells from the mouse femurs and tibias were stained with a cocktail of antibodies to lineage committed cells (CD45R, CD19, CD11b, CD3e, TER-119, CD2, CD8, CD4, Ly-6C/G: All FITC, eBioscience), antibodies to Sca1 (Pacific Blue) and ckit (APC Cy7) to identify HSPC populations and LSK (lin-, Sac1+ and ckit+) cells, and antibodies to CD16/CD32 (FcγRII/III), CD34 to separate CMP (lin-, Sca1-, ckit+, CD34int, […] (lin-, Sca1-, ckit+, CD34int, […] (lin-, Sca1-, ckit+, CD34lo, FcγRII/IIIlo). For DNA content analysis (G2M phase), BM cells were fixed, and stained with DAPI (Invitrogen) prior to flow cytometry analysis. To determine in vivo cell proliferation, EdU (Invitrogen) was injected into mice via the tail vein 24 hours prior to being sacrificed. Cells were immunostained as described above in preparation for flow cytometry. Cells were then fixed and permeabilized using 0.01% saponin (w/v; Fluka) and 1% FCS (v/v) in IC fixation buffer (eBiosciences) for 30 minutes. Cells were then washed and stained with Alexa Fluor-conjugated azides using the Click-iT system (Invitrogen). Proliferation was quantified as percentage of EdU^+ cells by flow cytometry.

In the case of CCN(CC)CCO[C@H]1CC[C@@]2(C)C(=CC[C@@H]3[C@@H]2CC[C@]2(C)C(=O)CC[C@@H]32)C1 [U18666A], the “cell surface c-MPL levels” value ([1]; Abcg4−/− MkPs) is reported as “reversed” and the c-CBL tyrosine phosphorylation ([2]; Abcg4−/− MkPs) is reported as “reversed”.
For “TPO: Thrombopoietin, growth factor regulating megakaryocyte/platelet lineage development (R&D Systems)”, the p-ERK1/2 levels [3] was “increased”, the p-STAT5 levels [3] was “increased” and the increase in platelets ([4]; chow-fed Abcg4−/− mice) was 2.1 fold. For the same compound, the increase in platelets ([4]; chow-fed WT mice) was 1.4 fold.
In the case of NNc1ccccc1 [phenylhydrazine], the “LacZ positive cells in the spleen” value [5] is reported as “marked expansion”.
In the case of Romiplostim, the platelet counts [6] is listed as “increasing”.
With CC(C)C[C@@H](C=O)NC(=O)[C@H](CC(C)C)NC(=O)[C@H](CC(C)C)NC(=O)OCc1ccccc1 [MG132] (Cbz-Leu-Leu-Leu-aldehyde) the “cell surface c-MPL levels” value ([1]; WT MkPs) was “increased”.
For CN(C)S(=O)(=O)c1ccc2c(c1)/C(=C/c1cc3c([nH]1)CCCC3)C(=O)N2 [SU6656], the “cell surface c-MPL levels” value ([1]; WT and Abcg4−/− MkPs) was “increased” and the c-CBL tyrosine phosphorylation ([2]; WT and Abcg4−/− MkPs) was “markedly decreased”.
In the case of cyclodextrin [CD], the “cell surface c-MPL levels” value ([1]; WT and Abcg4−/− MkPs) is reported as “significantly reduced”, the “increase in megakaryocyte colonies associated with ABCG4 deficiency” value [7] is reported as “reversed” and the MkP proliferation ([8]; Lyn−/− MkPs) is reported as “completely unresponsive”. The MkP proliferation ([8]; WT MkPs) was “decreased”, the MkP proliferation ([8]; WT and Abcg4−/− MkPs) was “significantly reduced” and the c-CBL tyrosine phosphorylation ([2]; WT and Abcg4−/− MkPs) was “increased”.
